The supplement of paper PMC10307832

Tests used:
Experiment in all cases: relative viability (nuclei count vs DMSO), 5 days (fraction); higher = more cells survive
MLN4924 + Trametinib = compound: NS(=O)(=O)OC[C@@H]1C[C@@H](n2ccc3c(N[C@H]4CCc5ccccc54)ncnc32)C[C@@H]1O [MLN4924] + CC(=O)Nc1cccc(-n2c(=O)n(C3CC3)c(=O)c3c(Nc4ccc(I)cc4F)n(C)c(=O)c(C)c32)c1 [Trametinib] (partner 0.02 µM)
Method in brief: (§1)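 Medians of duplicate plates are given as relative viability. That measure is the nuclei count in treated wells divided by the count in vehicle wells. Counts were taken on 4× images of lung cancer cell lines in 1536-well plates, 5 days after pin-tool dosing the day after seeding with one drug alone or a fixed anchor-drug dose plus five library-drug doses (not always all listed) in √10 steps.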

Carboplatin + Navitoclax = compound: C1CC(C1)(C(=O)O)C(=O)O.[NH2-].[NH2-].[Pt+2] [Carboplatin] + CC1(C)CCC(c2ccc(Cl)cc2)=C(CN2CCN(c3ccc(C(=O)NS(=O)(=O)c4ccc(N[C@H](CCN5CCOCC5)CSc5ccccc5)c(S(=O)(=O)C(F)(F)F)c4)cc3)CC2)C1 [Navitoclax] (partner 0.5 µM)
Method in brief: as §1

GSK126 + OSI-027 = compound: CC[C@H](C)N1C=C(C2=C(C=C(C=C21)C3=CN=C(C=C3)N4CCNCC4)C(=O)NCC5=C(C=C(NC5=O)C)C)C [GSK126] + COc1cccc2cc(-c3nc([C@H]4CC[C@H](C(=O)O)CC4)n4ncnc(N)c34)[nH]c12 [OSI-027] (partner 0.5 µM)
Method in brief: as §1

MLN4924 + Linsitinib = compound: NS(=O)(=O)OC[C@@H]1C[C@@H](n2ccc3c(N[C@H]4CCc5ccccc54)ncnc32)C[C@@H]1O [MLN4924] + C[C@]1(O)C[C@@H](c2nc(-c3ccc4ccc(-c5ccccc5)nc4c3)c3c(N)nccn32)C1 [Linsitinib] (partner 1 µM)
Method in brief: as §1

Cell Line	relative viability (MLN4924 + Trametinib; first compound 0.04 µM)	relative viability (MLN4924 + Trametinib; first compound 0.1265 µM)	relative viability (MLN4924 + Trametinib; first compound 0.4 µM)	relative viability (MLN4924 + Trametinib; first compound 1.265 µM)	relative viability (MLN4924 + Trametinib; first compound 4 µM)	relative viability (Carboplatin + Navitoclax; first compound 0.08 µM)	relative viability (Carboplatin + Navitoclax; first compound 0.253 µM)	relative viability (Carboplatin + Navitoclax; first compound 0.8 µM)	relative viability (Carboplatin + Navitoclax; first compound 2.53 µM)	relative viability (Carboplatin + Navitoclax; first compound 8 µM)	relative viability (GSK126 + OSI-027; first compound 0.08 µM)	relative viability (GSK126 + OSI-027; first compound 0.253 µM)	relative viability (GSK126 + OSI-027; first compound 0.8 µM)	relative viability (GSK126 + OSI-027; first compound 2.53 µM)	relative viability (GSK126 + OSI-027; first compound 8 µM)	relative viability (MLN4924 + Linsitinib; first compound 0.04 µM)	relative viability (MLN4924 + Linsitinib; first compound 0.1265 µM)	relative viability (MLN4924 + Linsitinib; first compound 0.4 µM)	relative viability (MLN4924 + Linsitinib; first compound 1.265 µM)	relative viability (MLN4924 + Linsitinib; first compound 4 µM)
A-427	0.612	0.477	0.334	0.271	0.263	0.973	0.941	0.953	0.908	0.964	0.491	0.515	0.43	0.409	0.456	0.686	0.381	0.315	0.222	0.217
NCI-H661	0.714	0.712	0.475	0.277	0.353	–	–	–	–	–	0.769	0.737	0.762	0.746	0.74	0.636	0.757	0.576	0.258	0.247
NCI-H1993	0.63	0.425	0.388	0.415	0.356	0.981	0.867	0.855	0.755	0.861	0.492	0.53	0.557	0.542	0.541	0.937	0.719	0.68	0.632	0.584
NCI-H1944	0.388	0.353	0.329	0.193	0.186	1.1	1.1	0.991	1.02	0.656	0.456	0.423	0.423	0.369	0.449	1.38	1.19	1.02	0.257	0.37
NCI-H650	0.894	0.76	0.574	0.201	0.176	–	–	–	–	–	0.49	0.529	0.489	0.497	0.583	0.611	0.604	0.266	0.186	0.174
NCI-H1563	–	–	–	–	–	–	–	–	–	–	0.789	0.785	0.863	0.803	0.753	1.73	1.18	0.753	0.606	0.6
NCI-H1703	–	–	–	–	–	1.31	1.2	1.11	1.07	1.49	–	–	–	–	–	0.235	0.241	0.157	0.111	0.146
NCI-H1648	0.481	0.353	0.332	0.314	0.306	–	–	–	–	–	0.248	–	0.265	0.242	0.252	–	–	–	–	–
ABC-1	–	–	–	–	–	–	–	–	–	–	0.462	0.525	0.532	0.492	0.539	0.875	0.795	0.618	0.238	0.218
NCI-H2170	0.879	0.537	0.467	0.155	0.126	0.679	0.594	0.633	0.588	0.508	0.809	0.817	0.712	0.749	0.737	–	–	–	–	–
IA-LM	–	–	–	–	–	0.756	0.553	0.826	0.675	0.532	–	–	–	–	–	0.252	0.197	0.155	0.0583	0.0889
NCI-H1650	0.597	0.32	0.232	0.131	0.156	1.33	1.11	1.13	1.07	0.726	0.834	0.594	0.703	0.684	0.681	–	–	–	–	–
SW 900	–	0.764	0.449	0.291	0.218	–	–	–	–	–	0.605	0.505	0.502	0.473	0.466	–	–	–	–	–
A549	–	–	–	–	–	1.25	1.29	1.18	0.985	0.535	–	–	–	–	–	0.635	0.626	0.496	0.0571	0.047
NCI-H1299	–	–	–	–	–	1.09	1.02	1.02	1.01	0.964	–	–	–	–	–	0.903	0.768	0.441	0.189	0.186
NCI-H1623	–	–	–	–	–	–	–	–	–	–	0.414	0.473	0.425	0.504	0.401	–	–	–	–	–
NCI-H2342	0.834	0.757	0.759	0.727	0.54	–	–	–	–	–	0.678	0.616	0.622	0.626	0.669	–	–	–	–	–
NCI-H522	0.638	0.696	0.691	0.314	0.386	–	–	–	–	–	0.651	0.731	0.779	0.638	0.686	–	–	–	–	–
ChaGo-K-1	0.763	0.411	0.392	0.186	0.174	1.17	1.01	0.944	0.798	0.53	0.609	0.611	0.562	0.545	0.544	–	–	–	–	–
EBC-1	–	–	–	–	–	0.479	0.364	0.443	0.401	0.33	–	–	–	–	–	0.812	0.628	0.182	0.102	0.13
Calu-6	–	–	–	–	–	0.931	0.77	0.824	0.737	0.296	–	–	–	–	–	0.946	0.708	0.317	0.101	0.109
